In the supplement of paper PMC10307832:

Assays:
Assay in all cases: relative viability (nuclei count vs DMSO), 5 days (fraction); higher = more cells survive
CAP-232 = compound: C[C@H]([C@@H](C(=O)N)NC(=O)[C@@H]1CSSC[C@@H](C(=O)N[C@H](C(=O)N[C@@H](C(=O)N[C@H](C(=O)N1)CCCCN)CC2=CNC3=CC=CC=C32)CC4=CC=C(C=C4)O)NC(=O)[C@@H](CC5=CC=CC=C5)N)O [CAP-232]
Summary of the method: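 Nuclei counted with MetaXpress define viability as the ratio of treated to vehicle wells, given as a median across plates. The lung cancer cell lines were in 1536-well plates, pinned with five √10-spaced library-drug doses and imaged at 4× after 5 days and Hoechst staining. Plates passed with control CV below 25% and at least one doubling.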

CAP-232 + Lapatinib = compound: C[C@H]([C@@H](C(=O)N)NC(=O)[C@@H]1CSSC[C@@H](C(=O)N[C@H](C(=O)N[C@@H](C(=O)N[C@H](C(=O)N1)CCCCN)CC2=CNC3=CC=CC=C32)CC4=CC=C(C=C4)O)NC(=O)[C@@H](CC5=CC=CC=C5)N)O [CAP-232] + CS(=O)(=O)CCNCc1ccc(-c2ccc3ncnc(Nc4ccc(OCc5cccc(F)c5)c(Cl)c4)c3c2)o1 [Lapatinib] (partner 2 µM)
Summary of the method: (§1)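 Five library-drug doses in √10 steps were combined with a fixed anchor-drug dose, or a single drug was given alone, by pin tool to lung cancer cell lines in 1536-well plates the day after seeding. Nuclei were stained and counted after 5 days. Relative viability is the nuclei count in treated wells over that in vehicle wells, taken as the median of duplicate plates.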

CAP-232 + Dasatinib = compound: C[C@H]([C@@H](C(=O)N)NC(=O)[C@@H]1CSSC[C@@H](C(=O)N[C@H](C(=O)N[C@@H](C(=O)N[C@H](C(=O)N1)CCCCN)CC2=CNC3=CC=CC=C32)CC4=CC=C(C=C4)O)NC(=O)[C@@H](CC5=CC=CC=C5)N)O [CAP-232] + Cc1nc(Nc2ncc(C(=O)Nc3c(C)cccc3Cl)s2)cc(N2CCN(CCO)CC2)n1 [Dasatinib] (partner 0.075 µM)
Summary of the method: as §1

CAP-232 + Vorinostat = compound: C[C@H]([C@@H](C(=O)N)NC(=O)[C@@H]1CSSC[C@@H](C(=O)N[C@H](C(=O)N[C@@H](C(=O)N[C@H](C(=O)N1)CCCCN)CC2=CNC3=CC=CC=C32)CC4=CC=C(C=C4)O)NC(=O)[C@@H](CC5=CC=CC=C5)N)O [CAP-232] + O=C(CCCCCCC(=O)Nc1ccccc1)NO [Vorinostat] (partner 1 µM)
Summary of the method: as §1

CAP-232 + Navitoclax = compound: C[C@H]([C@@H](C(=O)N)NC(=O)[C@@H]1CSSC[C@@H](C(=O)N[C@H](C(=O)N[C@@H](C(=O)N[C@H](C(=O)N1)CCCCN)CC2=CNC3=CC=CC=C32)CC4=CC=C(C=C4)O)NC(=O)[C@@H](CC5=CC=CC=C5)N)O [CAP-232] + CC1(C)CCC(c2ccc(Cl)cc2)=C(CN2CCN(c3ccc(C(=O)NS(=O)(=O)c4ccc(N[C@H](CCN5CCOCC5)CSc5ccccc5)c(S(=O)(=O)C(F)(F)F)c4)cc3)CC2)C1 [Navitoclax] (partner 0.5 µM)
Summary of the method: as §1

Cell Line	relative viability (CAP-232; 0.4 µM)	relative viability (CAP-232; 1.265 µM)	relative viability (CAP-232; 4 µM)	relative viability (CAP-232; 12.65 µM)	relative viability (CAP-232 + Lapatinib; first compound 0.4 µM)	relative viability (CAP-232 + Lapatinib; first compound 1.265 µM)	relative viability (CAP-232 + Lapatinib; first compound 4 µM)	relative viability (CAP-232 + Lapatinib; first compound 12.65 µM)	relative viability (CAP-232 + Dasatinib; first compound 0.4 µM)	relative viability (CAP-232 + Dasatinib; first compound 1.265 µM)	relative viability (CAP-232 + Dasatinib; first compound 4 µM)	relative viability (CAP-232 + Dasatinib; first compound 12.65 µM)	relative viability (CAP-232 + Vorinostat; first compound 0.4 µM)	relative viability (CAP-232 + Vorinostat; first compound 1.265 µM)	relative viability (CAP-232 + Vorinostat; first compound 4 µM)	relative viability (CAP-232 + Vorinostat; first compound 12.65 µM)	relative viability (CAP-232 + Navitoclax; first compound 0.4 µM)	relative viability (CAP-232 + Navitoclax; first compound 1.265 µM)	relative viability (CAP-232 + Navitoclax; first compound 4 µM)	relative viability (CAP-232 + Navitoclax; first compound 12.65 µM)
LOU-NH91	1.01	0.908	0.934	0.686	0.781	0.771	0.821	0.639	0.593	0.548	0.618	0.437	1.02	0.882	0.931	0.415	0.729	0.734	0.665	0.437
NCI-H1734	0.97	0.981	1.05	0.936	1	1	0.95	0.73	0.45	0.459	0.461	0.446	0.878	0.755	0.803	0.708	0.778	0.849	0.889	0.767
NCI-H520	1.09	1.01	1.07	0.928	0.961	0.858	0.965	0.684	0.189	0.193	0.251	0.201	0.71	0.695	0.75	0.577	1.03	0.997	1.13	0.582
NCI-H727	0.746	0.938	0.955	0.913	–	0.792	0.826	0.719	0.301	0.362	0.38	0.335	1.19	1.08	1.39	1.23	–	0.431	0.377	0.347
NCI-H596	1.12	0.934	0.912	0.976	1.13	1.03	1.01	0.974	0.502	0.615	0.536	0.615	0.666	0.613	0.582	0.53	0.839	1	1.08	0.987
NCI-H1755	1.04	0.964	1.1	0.918	1.13	0.984	1.23	1.02	0.358	0.461	0.48	0.372	0.698	0.635	0.755	0.73	0.6	1.1	1.1	0.949
SW 1573	0.909	0.928	1.06	0.495	1.06	1.12	1.21	1.13	0.416	0.493	0.603	0.0706	0.7	0.867	0.926	0.309	0.912	1.1	0.988	0.635
NCI-H647	1.11	0.808	1.17	0.768	1.07	1.14	1.39	0.469	0.259	0.155	0.179	0.125	0.541	0.593	0.602	0.414	1.35	1.27	1.31	1.09
UMC-11	0.917	0.914	1.08	0.95	1.02	0.907	1.14	1.08	0.621	0.494	0.587	0.316	0.357	0.413	0.344	0.272	0.317	0.307	0.295	0.297
HCC-15	1.15	1.01	1.14	0.874	0.971	0.8	0.934	0.654	0.629	0.601	0.693	0.262	0.825	0.858	0.959	0.61	0.736	0.726	0.774	0.576
NCI-H2126	1.05	0.985	1.1	0.991	0.762	0.694	0.895	0.797	0.639	0.585	0.704	0.571	0.827	0.795	0.755	0.857	0.864	0.804	0.843	0.851
NCI-H2085	1.03	1.03	0.997	0.945	0.833	0.789	0.732	0.878	0.232	0.193	0.223	0.19	0.852	0.819	0.779	0.832	1.18	1.06	1.15	1.15
BEN	1.03	1.05	0.989	0.922	0.776	0.661	0.583	0.575	0.39	0.261	0.264	0.424	0.547	0.57	0.565	0.479	0.0584	0.0704	0.0685	0.0473
PC-3 [JPC-3]	1.09	1.05	1.07	0.955	0.503	0.444	0.454	0.461	1.08	1.06	1.08	0.908	1.3	0.741	0.864	0.741	0.827	0.801	0.725	0.698
NCI-H2228	1.23	0.976	1.05	0.829	1.32	0.907	1.66	0.904	0.482	0.565	0.479	0.365	0.657	0.389	0.597	0.709	0.84	0.96	0.473	1.01
COR-L23	1.15	1.05	1.09	0.745	1.3	0.961	1.08	0.845	0.506	0.575	0.531	0.342	0.518	0.474	0.488	0.381	1.02	1.1	0.977	0.572
NCI-H1915	1.09	0.948	1.08	1.07	1.04	0.957	1.04	0.982	0.326	0.31	0.303	0.287	0.697	0.511	0.516	0.506	0.825	0.75	0.771	0.766
